Earlier results in US20250019345A1, “NEW CANNABINOID-GAB[…] USES THEREOF” (LONDON PHARMACEUTICALS AND RESEARCH CORPORATION, priority 2021, published 2025).

Details: after oral administration; for Tmax: cannabinoids

SMILES	Tmax [h]	bioavailability
C=C(C)[C@@H]1CCC(C)=C[C@H]1c1c(O)cc(CCCCC)cc1O [CBD, cannabidiol]	~4	
CCCCCc1cc(O)c2c(c1)OC(C)(C)[C@@H]1CCC(C)=C[C@@H]21 [THC, delta-9-tetrahydrocannabinol]	~4	
CC(C)C[C@H](CN)CC(=O)O [pregabalin]		exceed 90%
